Measured values from patent publication US20260297136A1, “PEPTIDES WITH LIPOLYTIC, ANTI-LIPOGENIC, ANTIFIBROTIC AND ANTI-INFLAMMATORY ACTIVITY” (FUNDACIÓ HOSPITAL UNIVERSITARI VALL D'HEBRON - INSTITUT DE …, priority 2023, published 2026).

Legend:
[1] = system: HepG2 cells; test: Hepatic lipogenesis in HepG2 cells induced by 30 mM fructose (ACC and PPARγ mRNA), Example 3; assay type: cell-based, human; details: 5 days
Protocol: FIG. 2. Human hepatoblastoma cell line HepG2 was treated with vehicle (DMSO) in the absence or presence of 30 mM fructose and Telmisartan (5 μg/ml), Semaglutide (10 nM) or GP6 (10 or 40 μg/ml) for 5 days. RNA was extracted and mRNA levels of Acetyl-CoA Carboxylase (ACC) (panel A) and Peroxisome proliferator-activated receptor gamma (PPARγ) (panel B) relative to 18S were measured by RTPCR.
Cell culture reagents were from Life Technologies Inc (Invitrogen SA, Barcelona, Spain). HepG2 hepatoblastoma cells (cat. no. HB-8065; ATCC, LGC Standards SLU, Barcelona, Spain) were maintained in Dulbecco's modified Eagle medium (DMEM) supplemented with 10% fetal bovine serum and antibiotics. HepG2 cells were cultured for 5 day in the absence or presence of 30 mM fructose. Cells cultured in 30 mM fructose were daily treated with vehicle, Telmisartan, Semaglutide or GP6. LX-2 human hepatic stellate cells (SCC064) were maintained in DMEM supplemented with 2% fetal bovine serum and antibiotics. For experiments, LX-2 were cultured for 24 h in DMEM 0.2% FBS and treated for 24 h with vehicle or TGFβ1 (20 ng/ml) in the absence or presence of GP6 (10 or 40 μg/ml). At the end of the experiment's cells were harvested for gene expression analysis.
Total RNA was extracted from HepG2 and LX-2 cells using TRIzol reagent (Invitrogen SA). Reverse transcription was performed at 42° C. for 50 minutes using […] of total RNA, 200 U of Superscript II, and an oligo-dT primer and reagents provided by Invitrogen. […] Results were analyzed using the 7000 Sequence Detection System program (Applied Biosystems, Thermo Fisher Scientific, Barcelona, Spain) (Sex Hormone-Binding Globulin Reduction in Metabolic Disorders May Play a Role in NAFLD Development.Saez-Lopez C, Barbosa-Desongles A, Hernandez C, Dyer R A, Innis S M, Simo R, Selva D M. Endocrinology. 2017 Mar. 1; 158(3):545-559. doi: 10.1210/en.2016-1668).

[2] = system: obesity and fatty liver disease mouse model; test: Preventive effects in an obesity and fatty liver disease mouse model, Example 4; assay type: in vivo, C57BL6/J male mice; details: 20 mg/kg/day sc, 8 weeks
Protocol: C57BL6/J male mice were purchased and kept for quarantine and acclimatization for a period of about 7 days before initiation of every experiment. Mice were housed in clean and sterilized mice cages and maintained in a controlled environment with 22+3° C. temperature, 50+20% humidity, a light/dark cycle of 12 hours each and 15-20 fresh air changes per hour.
For Obesity and NAFLD induction, the animals were fed ad libitum, either with chow diet (150SP-10, Safe Diets) or 45% high-fat diet (TD.190179, Envigo) plus 30% fructose (F0127, Sigma Aldrich) in drinking water for 8 weeks in the daily presence of vehicle or a subcutaneous injection of GP6 (20 mg/kg/day). A group of mice (n=18) was randomly divided in two groups of 9 mice each. Both groups were fed with high fat diet and 30% fructose in the drinking water for 8 weeks to develop obesity and fatty liver disease. One group was treated with daily subcutaneous injections of vehicle (water) and the other with daily subcutaneous injection of GP6 (20 mg/kg/day) during the 8 weeks that last the experiment.
At the end of the experiment mice were sacrificed, serum samples were extracted, tissues were weighted and part was fixed in paraformaldehyde for histology studies and part immediately frozen at −80 C for mRNA and protein expression studies as well as assessment of triglycerides.
For histological studies, livers and adipose tissue were fixed in 4% paraformaldehyde for 24 hours and embedded in paraffin. Serial […] sections were used for histological examination and stained with hematoxylin eosin (H&E) and Picrosirius red for histological examination following standard procedures. Briefly, sections were alcohol-xylol hydrated at room temperature, and subsequently, they were stained at room temperature in a solution of 0.1% Direct Red 80 (Sigma-Aldrich) in a saturated aqueous solution of [COMPOUND LEFT OUT] (Sigma-Aldrich) for 1 h. Following that, sections were rinsed twice in 0.5% acetic acid or 5 min, alcohol-xylol dehydrated and covered with Eukitt mounting medium (Sigma-Aldrich). These sections were examined with an Olympus BX61 microscope. Six random fields at 4× magnification from each slice were quantified using ImageJ software to determine the liver collagen deposition as the red stained area in the image. The stage of liver steatosis and/or fibrosis was assessed blinded by an experienced pathologist according to the NASH-clinical research network scoring system (Design and validation of a histological scoring system for nonalcoholic fatty liver disease. Kleiner D E, Brunt E M, Van Natta M, Behling C, Contos MJ, Cummings O W, Ferrell L D, Liu Y C, Torbenson M S, Unalp-Arida A, Yeh M, McCullough A J, Sanyal AJ; Nonalcoholic Steatohepatitis Clinical Research Network. Hepatology. 2005 June; 41(6):1313-21. doi: 10.1002/hep.20701; Transforming growth factor-beta 1: A new factor reducing hepatic SHBG production in liver fibrosis. Briansó-Llort L, Fuertes-Rioja L, Ramos-Perez L, Salcedo-Allende M T, Hernandez C, Simo R, Selva D M. J Cell Physiol. 2022 September; 237(9):3598-3613. doi: 10.1002/jcp.30818). […]
Hepatic TG content was measured from liver extracts using a Triglyceride Assay Kit (ab65336) following the manufacture's instructions.
Total RNA was extracted from mouse tissues using TRIzol reagent (Invitrogen SA). Reverse transcription was performed at 42° C. for 50 minutes using […] of total RNA, 200 U of Superscript II, and an oligo-dT primer and reagents provided by Invitrogen. An aliquot of the reverse transcription product was amplified in a […] reaction using SYBRGreen (Invitrogen SA) with appropriate oligonucleotide primer pairs corresponding mouse ACC, FAS, ACLY, PPARG, Col1A1, F4/80, TNFα, IL1β, IL6, TGFβ1, Leptin, Adiponectin and 18S (shown in table 7). […]

[3] = blind pathologist, histology reduction confirmed

CC[C@@H](C)[C@@H](NC(=O)[C@H](NC(=O)CNC(=O)[C@@H](CCC(=O)O)NC(=O)[C@H]1CCCN1C(=O)[C@@H](CC(=O)O)NC(=O)[C@@H](Cc1c[nH]c2ccccc12)NC(=O)[C@H](NC(=O)[C@@H](CCCNC(=N)N)NC(=O)[C@H](NC(=O)[C@@H](CCC(=O)O)NC(=O)[C@@H](Cc1ccccc1)NC(=O)[C@@H](CO)NC(=O)[C@@H](CO)NC(=O)[C@@H](CO)NC(=O)[C@H](NC(=O)[C@@H](CCCCN)NC(=O)[C@H](N)[C@H](C)O)[C@H](C)O)C(C)C)[C@H](C)O)C(C)C)C(=O)N[C@H](Cc1ccccc1)C(=O)N[C@H](Cc1ccc(O)cc1)C(=O)O [GP6]
effectiveness in reducing the induced expression of ACC and PPARγ versus positive controls ([1]; GP6 10 or 40 μg/ml versus Telmisartan 5 μg/ml and Semaglutide 10 nM, 30 mM fructose): significantly much more effective than Telmisartan and Semaglutide | ACC mRNA levels induced by 30 mM fructose ([1]; GP6 10 or 40 μg/ml, daily): reducing mRNA levels | PPARγ mRNA levels induced by 30 mM fructose ([1]; GP6 10 or 40 μg/ml, daily): reducing mRNA levels | ACC mRNA levels in liver ([2]; vs vehicle): reduced the mRNA levels | F480 mRNA levels in adipose tissue ([2]; vs vehicle): reduced expression | F480 mRNA levels in hepatic tissue ([2]; vs vehicle): reduced expression | FAS mRNA levels in liver ([2]; vs vehicle): reduced the mRNA levels | PPARγ mRNA levels in liver ([2]; vs vehicle): reduced the mRNA levels | Total body weight ([2]; vs vehicle): significantly reduced | adipose tissue fibrosis (Col1A1 mRNA expression in adipose tissue) ([2]; vs vehicle): reduced adipose tissue fibrosis | hepatic expression of IL1β ([2]; vs vehicle): reduced the hepatic expression | hepatic expression of IL6 ([2]; vs vehicle): reduced the hepatic expression | hepatic expression of TNFα ([2]; vs vehicle): reduced the hepatic expression | total liver weight ([2]; vs vehicle): significantly reduced | weight increment (weight at week 8-weight at week 0) ([2]; vs vehicle): significantly reduced | weight of brown adipose tissue ([2]; vs vehicle): significantly reduced | weight of subcutaneous adipose tissue ([2]; vs vehicle): significantly reduced | weight of visceral adipose tissue ([2]; vs vehicle): significantly reduced | hepatic lipid accumulation (histology) ([2]; vs vehicle, H&E): reduced significantly | Brunt score [2, 3]: confirmed | Steatosis score [2, 3]: confirmed | percentage of steatosis [2, 3]: confirmed | hepatic triglyceride content (Liver TAG) ([2]; histology reduction confirmed): confirmed
